From ChEMBL document CHEMBL3885881, “DrugMatrix”

Species: Rattus norvegicus
Assay: DrugMatrix - Regimen: Daily Repeat
Type: toxicity, organism-based, Sprague-Dawley
Parameters: regimen Daily Repeat, gender Male, age 6-8 weeks
Conditions: in vivo, po, route oral GAVAGE, vehicle .5 % CMC; for ABSOLUTE BASOPHIL / ABSOLUTE EOSINOPHIL / ABSOLUTE LYMPHOCYTE / ABSOLUTE MONOCYTE / ABSOLUTE SEGMENTED NEUTROPHIL / BASOPHIL / EOSINOPHIL / ERYTHROCYTE COUNT / HEMATOCRIT / HEMOGLOBIN / LEUKOCYTE COUNT / LYMPHOCYTE / MEAN CORPUSCULAR HEMOGLOBIN / MEAN CORPUSCULAR HEMOGLOBIN CONCENTRATION / MEAN CORPUSCULAR VOLUME / MONOCYTE / NEUTROPHIL / NUCLEATED RED BLOOD CELLS / PLATELET COUNT: tissue Blood; for ALANINE AMINOTRANSFERASE / ALBUMIN / ALKALINE PHOSPHATASE / ASPARTATE AMINOTRANSFERASE / BLOOD UREA NITROGEN / CARBON DIOXIDE / CHLORIDE / CHOLESTEROL / CREATINE PHOSPHOKINASE / CREATININE / GLUCOSE / LACTATE DEHYDROGENASE / LIPASE / PHOSPHORUS / POTASSIUM / SODIUM / TOTAL BILIRUBIN / TOTAL PROTEIN / URIC ACID: tissue Plasma
[1] = 0 mg/kg, 72 h, dose level Control, time 3 day
[2] = 0 mg/kg, 120 h, dose level Control, time 5 day
[3] = 100 mg/kg, 72 h, dose level Low, time 3 day

Compound: COC1=C(OC)C(=O)C(CCCCCCCCCCO)=C(C)C1=O [IDEBENONE]
- ABSOLUTE BASOPHIL [1]: 0 CELLS/uL
- ABSOLUTE EOSINOPHIL [1]: 0 CELLS/uL
- ABSOLUTE LYMPHOCYTE [1]: 12191.17 CELLS/uL
- ABSOLUTE MONOCYTE [1]: 183.17 CELLS/uL
- ABSOLUTE SEGMENTED NEUTROPHIL [1]: 1192.33 CELLS/uL
- BASOPHIL [1]: 0%
- EOSINOPHIL [1]: 0%
- ERYTHROCYTE COUNT [1]: 5.51 x10E6/uL
- HEMATOCRIT [1]: 35.45%
- HEMOGLOBIN [1]: 13.82 G/DL
- LEUKOCYTE COUNT [1]: 13.57 x10E3/uL
- LYMPHOCYTE [1]: 89.83%
- MEAN CORPUSCULAR HEMOGLOBIN [1]: 25.1 pg
- MEAN CORPUSCULAR HEMOGLOBIN CONCENTRATION [1]: 38.98 G/DL
- MEAN CORPUSCULAR VOLUME [1]: 64.42 fL
- MONOCYTE [1]: 1.33%
- NEUTROPHIL [1]: 8.83%
- NUCLEATED RED BLOOD CELLS [1]: 0 /100WBC
- PLATELET COUNT [1]: 1118.17 x10E3/uL
- ALANINE AMINOTRANSFERASE [1]: 55 u/L
- ALBUMIN [1]: 4.15 G/DL
- ALKALINE PHOSPHATASE [1]: 449.5 u/L
- ASPARTATE AMINOTRANSFERASE [1]: 112.83 u/L
- BLOOD UREA NITROGEN [1]: 17.33 mg/dL
- CARBON DIOXIDE [1]: 29.5 mmol/L
- CHLORIDE [1]: 101 MEQ/L
- CHOLESTEROL [1]: 70 mg/dL
- CREATINE PHOSPHOKINASE [1]: 1325.83 u/L
- CREATININE [1]: 0.18 mg/dL
- GLUCOSE [1]: 171.5 mg/dL
- LACTATE DEHYDROGENASE [1]: 386 u/L
- LIPASE [1]: 10 u/L
- PHOSPHORUS [1]: 11.57 mg/dL
- POTASSIUM [1]: 6.21 MEQ/L
- SODIUM [1]: 141.65 MEQ/L
- TOTAL BILIRUBIN [1]: 0.15 mg/dL
- TOTAL PROTEIN [1]: 5.75 G/DL
- URIC ACID [1]: 1.28 mg/dL
- ABSOLUTE BASOPHIL [2]: 0 CELLS/uL
- ABSOLUTE EOSINOPHIL [2]: 138.17 CELLS/uL
- ABSOLUTE LYMPHOCYTE [2]: 13283.17 CELLS/uL
- ABSOLUTE MONOCYTE [2]: 303.83 CELLS/uL
- ABSOLUTE SEGMENTED NEUTROPHIL [2]: 1308.17 CELLS/uL
- BASOPHIL [2]: 0%
- EOSINOPHIL [2]: 1%
- ERYTHROCYTE COUNT [2]: 5.32 x10E6/uL
- HEMATOCRIT [2]: 33.8%
- HEMOGLOBIN [2]: 13.63 G/DL
- LEUKOCYTE COUNT [2]: 15.03 x10E3/uL
- LYMPHOCYTE [2]: 88.33%
- MEAN CORPUSCULAR HEMOGLOBIN [2]: 25.68 pg
- MEAN CORPUSCULAR HEMOGLOBIN CONCENTRATION [2]: 40.35 G/DL
- MEAN CORPUSCULAR VOLUME [2]: 63.67 fL
- MONOCYTE [2]: 1.83%
- NEUTROPHIL [2]: 8.83%
- NUCLEATED RED BLOOD CELLS [2]: 0 /100WBC
- PLATELET COUNT [2]: 1097.5 x10E3/uL
- ALANINE AMINOTRANSFERASE [2]: 54.5 u/L
- ALBUMIN [2]: 4.27 G/DL
- ALKALINE PHOSPHATASE [2]: 337 u/L
- ASPARTATE AMINOTRANSFERASE [2]: 94.67 u/L
- BLOOD UREA NITROGEN [2]: 17 mg/dL
- CARBON DIOXIDE [2]: 28.33 mmol/L
- CHLORIDE [2]: 101.5 MEQ/L
- CHOLESTEROL [2]: 71.33 mg/dL
- CREATINE PHOSPHOKINASE [2]: 628.17 u/L
- CREATININE [2]: 0.19 mg/dL
- GLUCOSE [2]: 177.83 mg/dL
- LACTATE DEHYDROGENASE [2]: 500.5 u/L
- LIPASE [2]: 9.5 u/L
- PHOSPHORUS [2]: 12.3 mg/dL
- POTASSIUM [2]: 5.63 MEQ/L
- SODIUM [2]: 143.03 MEQ/L
- TOTAL BILIRUBIN [2]: 0.2 mg/dL
- TOTAL PROTEIN [2]: 6.02 G/DL
- URIC ACID [2]: 1.5 mg/dL
- ABSOLUTE BASOPHIL [3]: 0 CELLS/uL
- ABSOLUTE EOSINOPHIL [3]: 86.67 CELLS/uL
- ABSOLUTE LYMPHOCYTE [3]: 16240.33 CELLS/uL
- ABSOLUTE MONOCYTE [3]: 104 CELLS/uL
- ABSOLUTE SEGMENTED NEUTROPHIL [3]: 1602.33 CELLS/uL
- BASOPHIL [3]: 0%
- EOSINOPHIL [3]: 0.67%
- ERYTHROCYTE COUNT [3]: 5.22 x10E6/uL
- HEMATOCRIT [3]: 32.37%
- HEMOGLOBIN [3]: 13.17 G/DL
- LEUKOCYTE COUNT [3]: 18.03 x10E3/uL
- LYMPHOCYTE [3]: 90.33%
- MEAN CORPUSCULAR HEMOGLOBIN [3]: 25.27 pg
- MEAN CORPUSCULAR HEMOGLOBIN CONCENTRATION [3]: 40.67 G/DL
- MEAN CORPUSCULAR VOLUME [3]: 62.07 fL
- MONOCYTE [3]: 0.67%
- NEUTROPHIL [3]: 8.33%
- NUCLEATED RED BLOOD CELLS [3]: 0 /100WBC
- PLATELET COUNT [3]: 1354 x10E3/uL
- ALANINE AMINOTRANSFERASE [3]: 57.67 u/L
- ALBUMIN [3]: 3.97 G/DL
- ALKALINE PHOSPHATASE [3]: 401 u/L
- ASPARTATE AMINOTRANSFERASE [3]: 105.67 u/L
- BLOOD UREA NITROGEN [3]: 17.67 mg/dL
- CARBON DIOXIDE [3]: 26.33 mmol/L
- CHLORIDE [3]: 101 MEQ/L
- CHOLESTEROL [3]: 67 mg/dL
- CREATINE PHOSPHOKINASE [3]: 961.67 u/L
- CREATININE [3]: 0.19 mg/dL
- GLUCOSE [3]: 227 mg/dL
- LACTATE DEHYDROGENASE [3]: 252 u/L
- LIPASE [3]: 9.67 u/L
- PHOSPHORUS [3]: 13.13 mg/dL
- POTASSIUM [3]: 6.02 MEQ/L
- SODIUM [3]: 142.43 MEQ/L
- TOTAL BILIRUBIN [3]: 0.2 mg/dL
- TOTAL PROTEIN [3]: 5.47 G/DL
- URIC ACID [3]: 1.67 mg/dL
